Earlier results, collected in PMC8491460 (Pharmacology Research & Perspectives, 2021).
Structures can show the parent of a compound that is named as a salt.

Experiments:
[1] = test system: patients with metastatic melanoma
[2] = test system: human 1205Lu melanoma tumor; settings: 1 mg/kg daily s.c. for 30 days
BN‐175 tumors = settings: 40 µg melphalan, 1 mg histamine, and 50 µg IL‐2 in 5 ml perfusate
murine EL4 lymphomas = settings: 75 mg/kg i.p. three times a week for 2 weeks
[3] = test system: patients with high‐grade non‐Hodgkin lymphoma; settings: 3 MIU IFNα, 1.5 mg/kg IL‐2, and 0.5 mg histamine s.c. 1–2 times daily, 5 days a week
[4] = clinical trials, adjuvant to IL‐2 immunotherapy
[5] = test system: patients with metastatic RCC
[6] = test system: CD11b^+Gr1^+ immature myeloid cells; settings: 0.8 mg/kg i.p. per day for 20 days
[7] = test system: Colorectal cancer patients; settings: 8.8 or 1.2 g per day oral, admission to 10th postoperative day
[8] = test system: patients with advanced RCC; settings: IFNα 3–6 MIU s.c. thrice/week, 800 mg cimetidine, 10 mg meloxicam, 4 mg candesartan or perindopril
[9] = test system: breast cancer models E0771 and 4T1; settings: 8 mg/kg in drinking water; E0771 and 4T1, respectively
rheumatoid arthritis [10] = settings: 100 mg once daily orally for 12 weeks, phase IIa
rheumatoid arthritis [11] = settings: phase IIb trial
[12] = test system: uncontrolled, eosinophilic asthma; settings: 30 mg per day for 24 weeks
[13] = test system: patients with moderate‐to‐severe psoriasis; settings: 30 and 60 mg per day
[14] = test system: patients with moderate to severe atopic dermatitis; settings: 30 mg administered orally for 8 weeks
[15] = histamine 75 µg/mouse i.p., 100–240 µg/mouse of each antibody
[16] = histamine 1500 µg/mouse with anti‐PD‐1/anti‐PD‐L1
[17] = histamine and anti‐PD‐1/anti‐PD‐L1

IL‐2: interleukin‐2 immunotherapeutic cytokine
overall response rates [1]: 16%

NCCc1c[nH]cn1 [histamine, 2‐(4‐imidazolyl)‐ethylamine]
accumulation and immunosuppressive features of MDSCs (EL4 lymphoma; 75 µg/mouse i.p. three times a week): diminished | tumor growth (EL4 lymphoma; 75 µg/mouse i.p. three times a week starting 1 day before tumor inoculation): diminished tumor growth | expression of PD‐L1 on MDSCs or PD‐1 on CD8^+ T cells (EL4 lymphoma; EL4 tumor‐bearing mice, histamine): did not alter | anti‐tumor efficacy of immune checkpoint blockade with anti‐PD‐1/anti‐PD‐L1 (EL4 lymphoma; [15]): improved | fraction of CD8^+ T cells displaying an effector phenotype (EL4 lymphoma; [16]): slightly increased | intra‐tumoral proportion of MDSCs, or T and NK cells (EL4 lymphoma; [16]): did not affect | neutrophil‐to‐lymphocyte ratio infiltrate [2]: decreased | tumor growth and neovascular formation [2]: reduced | response (BN‐175 tumors): no improved response | tumor‐infiltrating DCs (murine EL4 lymphomas; WT mice): increased | growth of murine EL4 lymphomas (murine EL4 lymphomas; WT mice but not NOX2‐deficient mice): reduced | anti‐tumor efficacy of immune checkpoint blockade with anti‐PD‐1/anti‐PD‐L1 (MC‐38 colon carcinoma; [15]): improved | MC‐38 tumor growth (MC‐38 colon carcinoma; histamine 1500 µg/mouse i.p. 3 times a week and anti‐PD‐1/anti‐PD‐L1): strongly reduced | fraction of CD8^+ T cells with an effector phenotype (MC‐38 colon carcinoma; [17]): raised significantly | fraction of intra‐tumoral CD8^+ T cells (MC‐38 colon carcinoma; [17]): tending to increase | intra‐tumoral NK cells (MC‐38 colon carcinoma; [17]): decreased | percentage of intra‐tumoral CD4^+ T cells (MC‐38 colon carcinoma; [17]): not altered | frequency of cytokine‐producing T cells and NK‐cell‐mediated cytotoxicity [3]: significant increases | tolerability [4]: generally well tolerated | tolerability ([5]; 1 mg HDC s.c. b.i.d. with IFNα 3 MIU and IL‐2 2.4 MIU/m^2): well tolerated | TILs, blood leukocyte count, f‐chain expression, or cytotoxicity ([5]; similar treatment scheme): did not influence | ability of immature myeloid cells to support the growth of tumor allografts [6]: suppressed | differentiation of CD11b^+Gr1^+ immature myeloid cells ([6]; through H1 receptor and H2 receptor): induced their terminal differentiation into monocytes and neutrophils

CN/C(=N/CCSCc1nc[nH]c1C)NC#N [cimetidine]
CD19^+ B cells in blood samples [7]: elevated levels | responses [8]: favorable responses

NCCc1c[nH]cn1 [HDC, histamine dihydrochloride]
ROS production by M4/M5 cells and apoptosis in adjacent NK cells (NK cells): inhibited

CNC(=C[N+](=O)[O-])NCCSCc1ccc(CN(C)C)o1 [ranitidine]
primary tumor growth and metastasis [9]: consistently reduced

Cc1cc(C)c2nc(-c3cnc(NCCCC4CCN(C)CC4)nc3C)[nH]c2c1 [toreforant]
signs and symptoms of rheumatoid arthritis (rheumatoid arthritis [10]): reduced | confirmation of the reduction of signs and symptoms (rheumatoid arthritis [11]): could not be confirmed | improvement of uncontrolled, eosinophilic asthma [12]: failed to improve | response versus placebo [13]: greater response than placebo

CN[C@@H]1CCN(c2cc(NCC3CC3)nc(N)n2)C1 [adriforant]
eczema and severity [14]: improved eczema and severity | tolerability [14]: well tolerated

CN(C)/N=N/c1[nH]cnc1C(N)=O [Dacarbazine]
overall response rates [1]: 16%
